From patent US20050059694A1, “New use of 11.28-dioxa-4-azatricyclo [22.3.1.04,9] octacos-18-ene derivatives and pharmaceutical compositions containing them” (Fujisawa Pharmaceutical Co., Ltd., priority 1987, published 2005)
≈ marks a conversion by molar mass, not a printed value.

Key:
[1] = tested on: human polymorphonuclear neutrophil leukocytes; assay: Inhibition of FMLP-stimulated oxidative burst (chemiluminescence) in PMNL; format: cell-based; conditions: minimal inhibiting concentration with significant inhibition of all 3 chemiluminescence parameters; FMLP stimulus
Description: (§1) 3. Inhibition of the Oxidative Burst in Human Polymorphonuclear neutrophil leukocytes (inhibition of FMLP—or, respectively, A 23187-stimulated chemiluminescence):
(§2) Polymorphonuclear leukocytes (PMNL) are prepared from human peripheral blood (M. Schaude et al., Mycoses 31 (5) [1988]259-267). Stock solutions of the test substances (500 mg/l) are freshly prepared on the day of experiment in 5% DMSO/RPMI 1640. For the determination of the chemiluminescence (CL) with Biolumat LB 9505 the luminescence indicator DMNH is used. […] The CL-reaction is started by addition of either 100 μl of the peptide FMLP (4×10^−6 M) or of the calcium ionophor A 23187 (4×10^−6 M). […] 3 parameters are used for evaluation of the results: peak intensity of the radiated light, time span up to the peak and surface area under the reaction curve. As minimal inhibiting concentration the concentration of test substance is chosen where a significant inhibition of all 3 parameters can be observed (Table 4).

[2] = tested on: human polymorphonuclear neutrophil leukocytes; assay: Inhibition of A 23187-stimulated oxidative burst (chemiluminescence) in PMNL; format: cell-based; conditions: minimal inhibiting concentration with significant inhibition of all 3 chemiluminescence parameters; calcium ionophor A 23187 stimulus
Description: as §1, §2

[3] = tested on: oxazolone allergy (allergic contact dermatitis, DTH-reaction); assay: Oxazolone allergy (mouse), topical administration; format: in vivo; conditions: ethanol as solvent, pinna weight difference 24 hours after second exposure
Description: 1. Determination of the activity after topical administration in models of allergic or allergen-induced contact dermatitis (DTH-reaction) 1.1. Oxazolone Allergy (Mouse): 10 μl of a 2% oxazolone solution are applied onto the abdominal skin of mice for sensitization, 8 days later a second exposure with 10 μl of a 2% oxazolone solution is performed by application on the peripheral internal surface of the pinna. 20 minutes and 2 hours after the second exposure has released the challenge reaction, the test solution is applied at the site of the second exposure. Evaluation of the inhibition of inflammation with the test substance is effected by reference to an untreated group treated with the solvent used for dissolving the test substance, alone. 24 hours after the second exposure the animals are killed and the separated pinnae are weighted. The difference in weight between the two pinnae is used for evaluation; the individual differences in the test group and in the solvent control group are statistically compared (by simple variance analysis with subsequent Dunnet test by normal distribution test if normally distributed, otherwise by […] and Wilcoxon-Mann-Whitney's U-test). The activity of the test substance is indicated in %, based on mean values. […] Ethanol is used as solvent.

[4] = tested on: TPA-induced PGE2 release from macrophages; assay: Inhibition of macrophage activation (TPA-induced PGE2 release); format: cell-based, NMRI mice; conditions: PGE2 release from TPA-stimulated mouse peritoneal macrophages
Description: 4. Inhibition of Macrophage Activation (Inhibition of TPA-induced PGE2 release)
Peritoneal exudate cells of NMRI mice pretreated 3 days earlier with 1.5 ml thioglycolate i.p. are harvested by peritoneal lavage, washed with deficient PBS and resuspended in DMEM medium supplemented with 10% FCS. 1×10^6 cells are transferred to each well of a 24-wells plate, and the cells are left to adhere 4 hours at 37° and 5% CO2. The cells are then washed twice with deficient PBS. The resultant, more than 95% pure macrophage population is stimulated with TPA ([…]) in DMEM-medium devoid of FCS. The conditioned media are centrifuged and the PGE2-contents determined using a ^125I-radioimmunotest. PGE2-release inhibition with the test substances is measured as percentage inhibition compared to the controls.

TPA-induced dermatitis = TPA-induced dermatitis (mouse), topical administration; format: in vivo, NMRI mice; conditions: dimethylacetamide/acetone/ethanol (2/4/4), pinna weight difference 6 hours after irritant
Description: 2. Determination of the Activity after Topical Administration In the Irritant-Induced Dermatitis Model (Mouse) 2.1 TPA-induced Dermatitis: Skin irritation with TPA in test animals is a method for testing substances as to their antiinflammatory activity after local application (Maibach, Lowe, Ed. Models in Dermatology, Vol. 3 [1987] p. 86-92, Karger-Basel). NMRI mice are given 10 μl of a TPA solution on the inner and outer side of the right pinna (2×10 μl/mouse=2×0.5 μg TPA/mouse). The left pinnae remain untreated. Treatment is effected 30 min. after irritation, by application of 2×10 μl of test solution onto the irritated ear surfaces, as described above. The evaluation of the test group is performed by comparison with a group where the right pinna has been treated with only the irritating solution and with the solvent used for the test substance. 6 hours after application of the irritant the animals are killed, the pinnae separated and weighted. The difference in weight of the two pinnae is used for the evaluation, whereby the individual differences of the test groups are statistically compared with the individual differences of the control groups (as under 1.1.). The activity of the test substances is indicated in % on the basis of the average values. The solvent used is a mixture of dimethylacetamide, acetone and ethanol (2/4/4): […]

[5] = tested on: dermatitis induced by croton oil; assay: Dermatitis induced by croton oil (mouse), topical administration; format: in vivo, NMRI mice; conditions: dissolved in irritant solution, pinna weight difference 6 hours after irritant
Description: 2. Determination of the Activity after Topical Administration In the Irritant-Induced Dermatitis Model (Mouse) 2.2. Dermatitis Induced by Croton Oil Croton oil is often used, as TPA, in order to induce an irritant-induced dermatitis on which substances can be tested for their anti-inflammatory activity (Maibach, Love, Ed., Models in Dermatology, Vol. 3[1987]p. 86-92, Karger-Basel). NMRI-mice are given 15 μl of 0.23% croton oil (in a mixture of dimethylacetamide, acetone and ethanol 2/4/4) on the inner side of the right pinna. Treatment is effected simultaneously with the irritation, the test substance being dissolved in the solution of irritant applied at the auricular test site. Evaluation of the test group is performed by comparison of the inflammation with a group receiving only the irritant solution on the pinna. The animals are killed 6 hours after application of the irritant, the pinnae separated and weighted. The difference between the weights of the two individual pinnae is used for evaluation, by statistical comparison of the single differences in the test group with the single differences in the control group (as under 1.1.). The activity of the test substances is indicated in % based on average values.

human keratinocytes = assay: Inhibition of proliferation of human keratinocytes; format: cell-based
Description: 5. Inhibition of proliferation of human keratinocytes
Cultures of human keratinocytes are obtained by trypsination of human foreskin from newborns or obtained as to EpiPack from Clonetics Corp. (San Diego). The keratinocyte cultures are grown in culture flasks in a supplemented keratinocyte medium (KGM). The passages 3 to 5 of 80-90% confluent keratinocytes are resuspended in KGM at a concentration of 1×10^5 cells/ml, and either 0.1 ml each of this cell suspension is added into a 96-vells microtiter plate or 1 ml each of this cell suspension are added into a 24-wells plate in the presence of test substance. The cells are grown for 48 hours at 37° and 5% CO2. ^3H-thymidine is incorporated during the last 16 hours (microtiter plate, 1 μCi/well), the cells are checked for their morphology, washed thrice with ice-cold, deficient PBS and twice with trichloroacetic acid, solubilized in 100 μl 0.1 N NaOH containing 1% SDS, and the radioactivity is measured. Alternatively, cells from the 24-well plate are trypsinized (trypsin/EDTA), checked for viability by trypan blue exclusion, and triple aliquots are counted in a cell counter.

DNFB contact allergy = assay: DNFB allergy (swine), topical administration; format: in vivo; conditions: 5% preparation (solution in 15% dimethylformamide, 42.5% ethanol, 42.5% propylenglycol), applied topically 4 times
Description: On the 1st and 3rd day 100 μl each of a 10% DNFB preparation is applied onto the inner surface of the right and, respectively, left thigh. On the 14th day each swine is marked on the right and the left side of the back with circular markings of 5 cm in diameter (8 markings per animal) and 150 μl each of a 0.5% DNFB preparation is applied thereon. The substances are tested either in the form of galenical compositions or of a solution. The carriers are used in each case as placebo controls.
The test products are carefully applied 4 times (first 30 minutes, then 6, 24 and 32 hours after release of the challenge reaction). Prior to each application the test areas are evaluated with respect to reddenning, swelling and consistance. The coloration of the test areas is then determined quantitatively with a reflectometer, repeatedly. From the data on brightness (L*) and saturation (C*) the erythema index is computed according to the following formula: 100−L*×C*. The mean erythema index is a reflection of the activity according to the following formula: [formula]

| SMILES | MIC (μM) (FMLP) [1] | MIC (μM) (A 23187) [2] | % inhibition ([3]; 0.005 % concentration) | inhibition at 1 µM [4] | % inhibition (TPA-induced dermatitis; 1.2 % concentration) | % inhibition (TPA-induced dermatitis; 3.6 % concentration) | % inhibition ([5]; 0.4 % concentration) | % inhibition ([5]; 1.2 % concentration) | % inhibition ([5]; 3.6 % concentration) | also measured |
| --- | --- | --- | --- | --- | --- | --- | --- | --- | --- | --- |
| C=CCC1C=C(C)CC(C)CC(OC)C2OC(O)(C(=O)C(=O)N3CCCCC3C(=O)OC(C(C)=CC3CCC(OC(C)=O)C(OC)C3)C(C)C(OC(C)=O)CC1=O)C(C)CC2OC (stereo not shown) [Compound D, 14-acetoxy-12-[2-(4-acetoxy-3-methoxycyclohexyl)-1-methylvinyl]-17-allyl-1-hydroxy-23,25-dimethoxy-13,19,21,27-tetramethyl-11,28-dioxa-4-azatricyclo[22.3.1.0^4,9]octacos-18-ene-2,3,10,16-tetraone] | <0.5 µM | 0.5 µM (≈ 0.444 µg/mL) |  |  |  |  |  |  |  |  |
| C=CCC1C=C(C)CC(C)CC(OC)C2OC(O)(C(=O)C(=O)N3CCCCC3C(=O)OC(C(C)=CC3CCC(OC(C)=O)C(OC)C3)C(C)C(O)CC1=O)C(C)CC2OC (stereo not shown) [Compound E, 12-[2-(4-acetoxy-3-methoxycyclohexyl)-1-methylvinyl]-17-allyl-1,14-dihydroxy-23,25-dimethoxy-13,19,21,27-tetramethyl-11,28-dioxa-4-azatricyclo[22.3.1.0^4,9]octacos-18-ene-2,3,10,16-tetraone] | <0.5 µM | 0.05 µM (≈ 0.0423 µg/mL) |  |  |  |  |  |  |  |  |
| COc1ccc2c(c1)c(CC(=O)O)c(C)n2C(=O)c1ccc(Cl)cc1 [Indomethacin, reference compound] |  |  |  |  | 26% | 31% | 11% | 63% | 96% |  |
| C=CC[C@@H]1/C=C(\C)C[C@H](C)C[C@H](OC)[C@H]2O[C@@](O)(C(=O)C(=O)N3CCCC[C@H]3C(=O)O[C@H](/C(C)=C/[C@@H]3CC[C@@H](O)[C@H](OC)C3)[C@H](C)[C@@H](O)CC1=O)[C@H](C)C[C@@H]2OC [Compound A, 17-Allyl-1,14-dihydroxy-12-[2-(4-hydroxy-3-methoxycyclo-hexyl)-1-methylvinyl]-23,25-dimethoxy-13,19,21,27-tetramethyl-11,28-dioxa-4-azatricyclo[22.3.1.0^4,9]octacos-18-ene-2,3,10,16-tetraone] | 0.005 µM (≈ 0.00402 µg/mL) | 0.05 µM (≈ 0.0402 µg/mL) | 52% | 30% | 52% | 56% | 52% | 64% | 85% | inhibition at 0.5 µM (human keratinocytes; Homo sapiens, Keratinocyte, 0.5 μM, 48 hours, read-out: % inhibition compared to control): 57%; inhibition at 1 µM (human keratinocytes; Homo sapiens, Keratinocyte, 1 μM, 48 hours, read-out: % inhibition compared to control): 74%; inhibition at 5 µM (human keratinocytes; Homo sapiens, Keratinocyte, 5 μM, 48 hours, read-out: % inhibition compared to control): 94%; reduction in proliferation (human keratinocytes; concentration range from 0.5 to 5 μM): dose-dependent reduction in proliferation; % inhibition ([3]; 0.0005 % concentration): 35%; % inhibition ([3]; 0.002 % concentration): 38%; % inhibition ([3]; 0.01 % concentration): 65%; % inhibition ([3]; 0.13 % concentration): 65%; clinical evaluation of the test sites / activity (DNFB contact allergy): the treated areas can hardly be distinguished from the adjacent normal skin |

Continued, in another order:

| MIC (μM) (FMLP) [1] | MIC (μM) (A 23187) [2] | SMILES | % inhibition ([3]; 0.005 % concentration) | inhibition at 1 µM [4] | % inhibition (TPA-induced dermatitis; 1.2 % concentration) | % inhibition (TPA-induced dermatitis; 3.6 % concentration) | % inhibition ([5]; 0.4 % concentration) | % inhibition ([5]; 1.2 % concentration) | % inhibition ([5]; 3.6 % concentration) | also measured |
| --- | --- | --- | --- | --- | --- | --- | --- | --- | --- | --- |
| 0.01 µM (≈ 0.00806 µg/mL) | 0.01 µM (≈ 0.00806 µg/mL) | CCCC1C=C(C)CC(C)CC(OC)C2OC(O)(C(=O)C(=O)N3CCCCC3C(=O)OC(C(C)=CC3CCC(O)C(OC)C3)C(C)C(O)CC1=O)C(C)CC2OC (stereo not shown) [Compound B, 1,14-dihydroxy-12-[2-(4-hydroxy-3-methoxycyclohexyl)-1-methylvinyl]-23,25-dimethoxy-13,19,21,27-tetramethyl-17-propyl-11,28-dioxa-4-azatricyclo[22.3.1.0^4,9]octacos-18-ene-2,3,10,16-tetraone] | 60% | 60% |  |  |  |  |  |  |
| 0.5 µM (≈ 0.393 µg/mL) | 5 µM (≈ 3.93 µg/mL) | C=CCC1C=C(C)CC(C)CC(OC)C2OC(O)(C(=O)C(=O)N3CCCCC3C(=O)OC(C(C)=CC3CCC(O)C(OC)C3)C(C)C=CC1=O)C(C)CC2OC (stereo not shown) [Compound C, 17-allyl-1-hydroxy-12-[2-(4-hydroxy-3-methoxycyclohexyl)-1-methylvinyl]-23,25-dimethoxy-13,19,21,27-tetramethyl-11,28-dioxa-4-azatricyclo[22.3.1.0^4,9]octacosa-14,18-diene-2,3,10,16-tetraone] |  | 60% |  |  |  |  |  |  |
